Assays:
[1] = molecular target: MtMetAP1c (Mycobacterium tuberculosis, UniProt P9WK19); experiment: Inhibition of purified MtMetAP1c apoenzyme activated by divalent metals; type: biochemical; conditions: apoenzyme activated by Co(II), Ni(II), Mn(II) or Fe(II)
[2] = system: MtMetAP1c-complemented E. coli cells; experiment: Inhibition of MtMetAP1c-complemented E. coli cell growth; conditions: highest concentration (1 mM) tested

Sequence of MtMetAP1c (P9WK19 whole entry, looked up): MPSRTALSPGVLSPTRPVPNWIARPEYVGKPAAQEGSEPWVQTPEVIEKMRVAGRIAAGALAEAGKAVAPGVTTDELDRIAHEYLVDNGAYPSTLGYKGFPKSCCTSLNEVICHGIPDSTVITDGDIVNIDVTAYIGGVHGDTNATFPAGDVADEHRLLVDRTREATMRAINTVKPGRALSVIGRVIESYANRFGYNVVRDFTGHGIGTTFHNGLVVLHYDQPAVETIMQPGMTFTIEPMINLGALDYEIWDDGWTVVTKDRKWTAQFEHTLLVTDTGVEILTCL

| Structure (SMILES) | metalloform selectivity of inhibition of purified MtMetAP1c [1] | growth inhibition at the highest concentration tested [2] |
| --- | --- | --- |
| Cc1nc(-c2ccc(O)c(O)c2)cs1 [compound 1] | selective for the Fe(II) form |  |
| Cc1ccsc1-c1ccc(O)c(O)c1 [compound 2] | selective for the Fe(II) form |  |
| O=C(O)c1ccc(-c2cc(Cl)ccc2Cl)o1 [compound 3] | selective for the Mn(II) form | no inhibition |
| Nc1nnc(SCc2ccc(F)cc2)[nH]1 [compound 5] |  | no inhibition |
| Cc1ccc(CSc2nnc(N)[nH]2)cc1 [compound 6] |  | no inhibition |

Source: PMC2820511 (Journal of medicinal chemistry, 2010)
